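Values below derive from 48-hour exposures of cells grown in 96-well plates, with endpoints linearly interpolated between the two concentrations bracketing the appropriate inhibition level. Abbreviation: GI50, concentration required for 50% inhibition of growth. TGI denotes the concentration required for complete inhibition of growth.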
Columns and labels:
Experiment in all cases: inhibition of tumour cell growth, NCI panel, 48 h
[1] = system: SF-268 CNS
[2] = system: HCT-116 colon
[3] = system: HT29 colon
[4] = system: KM12 colon
[5] = system: CAKI-1 renal
[6] = system: M14 melanoma
[7] = system: NCI-H23 lung
[8] = system: EKVX NSCLC
[9] = system: UACC-257 melanoma
[10] = system: SK-OV-3 ovarian
[11] = system: NCI/ADR-RES ovarian
[12] = system: HCT-15 colon
[13] = system: A549 NSCLC
[14] = system: SK-MEL-28 melanoma
[15] = system: OVCAR-5 ovarian
[16] = system: PC-3 prostate
[17] = system: SN12C renal
[18] = system: T-47D breast
[19] = system: HCC-2998 colon
[20] = system: NCI-H522 lung
[21] = system: TK-10 renal
[22] = system: SNB-75 CNS
[23] = system: MDA-MB-435
[24] = system: SNB-19 CNS
[25] = system: UO-31 renal
[26] = system: NCI-H226 lung
[27] = system: BT-549 breast
[28] = system: IGROV1 ovarian
[29] = system: COLO 205 colon
[30] = system: A498 renal
[31] = system: OVCAR-3 ovarian
[32] = system: SK-MEL-5 melanoma
[33] = system: NCI-H460 lung
[34] = system: RXF 393 renal
[35] = system: DU-145 prostate
[36] = system: 786-0 renal
[37] = system: OVCAR-8 ovarian
[38] = system: HOP-92 NSCLC
[39] = system: SW-620 colon
[40] = system: UACC-62 melanoma
[41] = system: LOX IMVI melanoma
[42] = system: SF-539 CNS
[43] = system: U251 CNS
[44] = system: RPMI-8226 leukemia
[45] = system: ACHN renal
[46] = system: MALME-3M melanoma
[47] = system: OVCAR-4 ovarian
[48] = system: MCF7 breast
[49] = system: SK-MEL-2 melanoma
[50] = system: MDA-MB-231 breast
[51] = system: SF-295 CNS
[52] = system: CCRF-CEM leukemia
[53] = system: HL-60(TB) leukemia
[54] = system: SR leukemia
[55] = system: MOLT-4 leukemia
[56] = system: K-562 leukemia
[57] = system: HOP-62 NSCLC
[58] = system: HS 578T breast

`CCCCCN(CCCCC)CCCNc1c2c(nc3ccc(Cl)cc13)CCCC2` was tested, and the GI50 [1] was 3.67 µM, the TGI [1] was 14.5 µM and the GI50 [2] was 0.88 µM. For the same compound, the TGI [2] was 2.9 µM, the GI50 [3] was 0.501 µM and the TGI [3] was 7.01 µM. For the same compound, the GI50 [4] was 3.13 µM, the TGI [4] was 10.3 µM and the GI50 [5] was 2.18 µM. It also gave a TGI [5] of 6.83 µM, a GI50 [6] of 1.8 µM and a TGI [6] of 3.41 µM. For the same compound, the GI50 [7] was 2.12 µM, the TGI [7] was 6.73 µM and the GI50 [8] was 2.78 µM. It also gave a TGI [8] of 13.6 µM, a GI50 [9] of 2.19 µM and a TGI [9] of 4.52 µM. For the same compound, the GI50 [10] was 4.08 µM, the TGI [10] was 13.8 µM and the GI50 [11] was 2.15 µM. It also gave a TGI [11] of 6.11 µM, a GI50 [12] of 2.58 µM and a TGI [12] of 11.1 µM. For the same compound, the GI50 [13] was 3.29 µM, the TGI [13] was 10.8 µM and the GI50 [14] was 3.74 µM. The TGI [14] was 13.8 µM, the GI50 [15] was 3.36 µM and the TGI [15] was 15 µM. The GI50 [16] was 2.46 µM, the TGI [16] was 8.9 µM and the GI50 [17] was 2.92 µM. For the same compound, the TGI [17] was 12.8 µM, the GI50 [18] was 2.6 µM and the TGI [18] was 6.17 µM. For the same compound, the GI50 [19] was 2.48 µM, the TGI [19] was 8.89 µM and the GI50 [20] was 1.74 µM. For the same compound, the TGI [20] was 3.86 µM, the GI50 [21] was 2.4 µM and the TGI [21] was 7.24 µM. The GI50 [22] was 2.38 µM, the TGI [22] was 11.9 µM and the GI50 [23] was 2.23 µM. It also gave a TGI [23] of 6.56 µM, a GI50 [24] of 4.96 µM and a TGI [24] of 18.4 µM. It also gave a GI50 [25] of 1.93 µM, a TGI [25] of 10.2 µM and a GI50 [26] of 2.05 µM. It also gave a TGI [26] of 6.71 µM, a GI50 [27] of 11.2 µM and a TGI [27] of 23.4 µM. For the same compound, the GI50 [28] was 1.49 µM, the TGI [28] was 5.77 µM and the GI50 [29] was 1.28 µM. For the same compound, the TGI [29] was 2.81 µM, the GI50 [30] was 1.72 µM and the TGI [30] was 8.94 µM. For the same compound, the GI50 [31] was 1.96 µM, the TGI [31] was 4.36 µM and the GI50 [32] was 1.82 µM. For the same compound, the TGI [32] was 3.34 µM, the GI50 [33] was 2.28 µM and the TGI [33] was 6.9 µM. For the same compound, the GI50 [34] was 2.82 µM, the TGI [34] was 7.95 µM and the GI50 [35] was 3.71 µM. It also gave a TGI [35] of 13.4 µM, a GI50 [36] of 3.91 µM and a TGI [36] of 13.6 µM. It also gave a GI50 [37] of 2.9 µM, a TGI [37] of 8.88 µM and a GI50 [38] of 1.19 µM. It also gave a TGI [38] of 5.63 µM, a GI50 [39] of 1.97 µM and a TGI [39] of 8.55 µM. It also gave a GI50 [40] of 4.36 µM, a TGI [40] of 16.8 µM and a GI50 [41] of 2.06 µM. It also gave a TGI [41] of 5.97 µM, a GI50 [42] of 3.6 µM and a TGI [42] of 13.2 µM. It also gave a GI50 [43] of 2.58 µM, a TGI [43] of 7.37 µM and a GI50 [44] of 1.98 µM. For the same compound, the TGI [44] was 4.54 µM, the GI50 [45] was 3.48 µM and the TGI [45] was 11.6 µM. For the same compound, the GI50 [46] was 2.54 µM, the TGI [46] was 6.01 µM and the GI50 [47] was 2.05 µM. It also gave a TGI [47] of 12 µM, a GI50 [48] of 2.46 µM and a TGI [48] of 8.34 µM. The GI50 [49] was 2.05 µM, the TGI [49] was 3.99 µM and the GI50 [50] was 2.76 µM. It also gave a TGI [50] of 13.1 µM, a GI50 [51] of 1.18 µM and a TGI [51] of 3.05 µM.

`O=S(=O)(NC1=NCCN1C(=S)SN1CCn2c1nsc2=S)c1ccc(OC(F)(F)F)cc1` was tested, and the GI50 [1] was 11 µM, the TGI [1] was 98.1 µM and the GI50 [2] was 6.15 µM. The TGI [2] was 22.3 µM, the GI50 [3] was 11.4 µM and the TGI [3] was > 100 µM. The GI50 [4] was 8.11 µM, the TGI [4] was 22.8 µM and the GI50 [52] was 4.01 µM. The TGI [52] was > 100 µM, the GI50 [5] was 17.5 µM and the TGI [5] was 74.5 µM. For the same compound, the GI50 [53] was 2.88 µM, the TGI [53] was 7.35 µM and the GI50 [54] was 1.74 µM. For the same compound, the TGI [54] was 5.76 µM, the GI50 [6] was 25.9 µM and the TGI [6] was > 100 µM. For the same compound, the GI50 [7] was 12.7 µM, the TGI [7] was 39 µM and the GI50 [55] was 2.04 µM. It also gave a TGI [55] of 7.39 µM, a GI50 [8] of 5.11 µM and a TGI [8] of 19.6 µM. The GI50 [9] was 15.5 µM, the TGI [9] was 30 µM and the GI50 [10] was 19.5 µM. For the same compound, the TGI [10] was 34.6 µM, the GI50 [11] was 20.5 µM and the TGI [11] was > 100 µM. It also gave a GI50 [12] of 8.64 µM, a TGI [12] of 26.2 µM and a GI50 [13] of 21.1 µM. It also gave a TGI [13] of 54.3 µM, a GI50 [14] of 22.7 µM and a TGI [14] of 64 µM. It also gave a GI50 [15] of 21.8 µM, a TGI [15] of 36.7 µM and a GI50 [16] of 13.1 µM. It also gave a TGI [16] of 37.2 µM, a GI50 [17] of 14.5 µM and a TGI [17] of 30.3 µM. It also gave a GI50 [18] of 13.9 µM, a TGI [18] of 44.4 µM and a GI50 [19] of 12.7 µM. The TGI [19] was 26.1 µM, the GI50 [20] was 2.92 µM and the TGI [20] was 9.8 µM. The GI50 [21] was 11.3 µM, the TGI [21] was 24.6 µM and the GI50 [22] was 14.7 µM. For the same compound, the TGI [22] was 34.4 µM, the GI50 [23] was 4.47 µM and the TGI [23] was 24.5 µM. For the same compound, the GI50 [24] was 16.8 µM, the TGI [24] was 32.1 µM and the GI50 [25] was 20.5 µM. It also gave a TGI [25] of 41.5 µM, a GI50 [26] of 18 µM and a TGI [26] of 38.7 µM. It also gave a GI50 [28] of 11.4 µM, a TGI [28] of 29.1 µM and a GI50 [29] of 10.7 µM. It also gave a TGI [29] of 28.2 µM, a GI50 [30] of 15.9 µM and a TGI [30] of 29.7 µM. For the same compound, the GI50 [31] was 7.63 µM, the TGI [31] was 22.9 µM and the GI50 [32] was 8.49 µM. The TGI [32] was 21.8 µM, the GI50 [33] was 13.1 µM and the TGI [33] was 48.5 µM. It also gave a GI50 [34] of 2.77 µM, a TGI [34] of 8.1 µM and a GI50 [56] of 4.02 µM. For the same compound, the TGI [56] was 19.8 µM, the GI50 [35] was 2.69 µM and the TGI [35] was 12.1 µM. For the same compound, the GI50 [36] was 8.53 µM, the TGI [36] was 21.6 µM and the GI50 [57] was 16.3 µM. The TGI [57] was 33 µM, the GI50 [58] was 4.83 µM and the TGI [58] was 33.1 µM. It also gave a GI50 [37] of 16.3 µM, a TGI [37] of 39.3 µM and a GI50 [38] of 25.1 µM. It also gave a TGI [38] of 44.1 µM, a GI50 [39] of 9.62 µM and a TGI [39] of 24.3 µM. The GI50 [40] was 11.6 µM, the TGI [40] was 24.4 µM and the GI50 [41] was 8.6 µM. It also gave a TGI [41] of 22.9 µM, a GI50 [42] of 1.31 µM and a TGI [42] of 12.1 µM. For the same compound, the GI50 [43] was 14.4 µM, the TGI [43] was 29.4 µM and the GI50 [44] was 6.1 µM. The TGI [44] was > 100 µM, the GI50 [45] was 10.1 µM and the TGI [45] was 23 µM. For the same compound, the GI50 [46] was 5.25 µM, the TGI [46] was 32.7 µM and the GI50 [47] was 14.6 µM. For the same compound, the TGI [47] was 31.6 µM, the GI50 [48] was 4.52 µM and the TGI [48] was 25.2 µM. For the same compound, the GI50 [49] was 6.58 µM, the TGI [49] was 21 µM and the GI50 [50] was 15.1 µM. For the same compound, the TGI [50] was 36.1 µM.

— PubChem BioAssay (NCI)
